The values that follow come from patent US7674823B2, “DNA-PK inhibitors” (Cancer Research Technology Limited, priority 2001, dated 2010).

As usually defined, the IC50 is the midpoint of a concentration-inhibition curve. Read a high IC50 as weaker potency.

A value given as a limit tells only on which side of the number the result lay.

Assay [1] deals with T1, ATM protein (Homo sapiens, UniProt Q13315).
T1 construct: ATM protein was immunoprecipitated from HeLa cell nuclear extract; endogenous in cells; host or cells: HeLa cell nuclear extract (immunoprecipitate)
T1 sequence (Q13315 whole entry): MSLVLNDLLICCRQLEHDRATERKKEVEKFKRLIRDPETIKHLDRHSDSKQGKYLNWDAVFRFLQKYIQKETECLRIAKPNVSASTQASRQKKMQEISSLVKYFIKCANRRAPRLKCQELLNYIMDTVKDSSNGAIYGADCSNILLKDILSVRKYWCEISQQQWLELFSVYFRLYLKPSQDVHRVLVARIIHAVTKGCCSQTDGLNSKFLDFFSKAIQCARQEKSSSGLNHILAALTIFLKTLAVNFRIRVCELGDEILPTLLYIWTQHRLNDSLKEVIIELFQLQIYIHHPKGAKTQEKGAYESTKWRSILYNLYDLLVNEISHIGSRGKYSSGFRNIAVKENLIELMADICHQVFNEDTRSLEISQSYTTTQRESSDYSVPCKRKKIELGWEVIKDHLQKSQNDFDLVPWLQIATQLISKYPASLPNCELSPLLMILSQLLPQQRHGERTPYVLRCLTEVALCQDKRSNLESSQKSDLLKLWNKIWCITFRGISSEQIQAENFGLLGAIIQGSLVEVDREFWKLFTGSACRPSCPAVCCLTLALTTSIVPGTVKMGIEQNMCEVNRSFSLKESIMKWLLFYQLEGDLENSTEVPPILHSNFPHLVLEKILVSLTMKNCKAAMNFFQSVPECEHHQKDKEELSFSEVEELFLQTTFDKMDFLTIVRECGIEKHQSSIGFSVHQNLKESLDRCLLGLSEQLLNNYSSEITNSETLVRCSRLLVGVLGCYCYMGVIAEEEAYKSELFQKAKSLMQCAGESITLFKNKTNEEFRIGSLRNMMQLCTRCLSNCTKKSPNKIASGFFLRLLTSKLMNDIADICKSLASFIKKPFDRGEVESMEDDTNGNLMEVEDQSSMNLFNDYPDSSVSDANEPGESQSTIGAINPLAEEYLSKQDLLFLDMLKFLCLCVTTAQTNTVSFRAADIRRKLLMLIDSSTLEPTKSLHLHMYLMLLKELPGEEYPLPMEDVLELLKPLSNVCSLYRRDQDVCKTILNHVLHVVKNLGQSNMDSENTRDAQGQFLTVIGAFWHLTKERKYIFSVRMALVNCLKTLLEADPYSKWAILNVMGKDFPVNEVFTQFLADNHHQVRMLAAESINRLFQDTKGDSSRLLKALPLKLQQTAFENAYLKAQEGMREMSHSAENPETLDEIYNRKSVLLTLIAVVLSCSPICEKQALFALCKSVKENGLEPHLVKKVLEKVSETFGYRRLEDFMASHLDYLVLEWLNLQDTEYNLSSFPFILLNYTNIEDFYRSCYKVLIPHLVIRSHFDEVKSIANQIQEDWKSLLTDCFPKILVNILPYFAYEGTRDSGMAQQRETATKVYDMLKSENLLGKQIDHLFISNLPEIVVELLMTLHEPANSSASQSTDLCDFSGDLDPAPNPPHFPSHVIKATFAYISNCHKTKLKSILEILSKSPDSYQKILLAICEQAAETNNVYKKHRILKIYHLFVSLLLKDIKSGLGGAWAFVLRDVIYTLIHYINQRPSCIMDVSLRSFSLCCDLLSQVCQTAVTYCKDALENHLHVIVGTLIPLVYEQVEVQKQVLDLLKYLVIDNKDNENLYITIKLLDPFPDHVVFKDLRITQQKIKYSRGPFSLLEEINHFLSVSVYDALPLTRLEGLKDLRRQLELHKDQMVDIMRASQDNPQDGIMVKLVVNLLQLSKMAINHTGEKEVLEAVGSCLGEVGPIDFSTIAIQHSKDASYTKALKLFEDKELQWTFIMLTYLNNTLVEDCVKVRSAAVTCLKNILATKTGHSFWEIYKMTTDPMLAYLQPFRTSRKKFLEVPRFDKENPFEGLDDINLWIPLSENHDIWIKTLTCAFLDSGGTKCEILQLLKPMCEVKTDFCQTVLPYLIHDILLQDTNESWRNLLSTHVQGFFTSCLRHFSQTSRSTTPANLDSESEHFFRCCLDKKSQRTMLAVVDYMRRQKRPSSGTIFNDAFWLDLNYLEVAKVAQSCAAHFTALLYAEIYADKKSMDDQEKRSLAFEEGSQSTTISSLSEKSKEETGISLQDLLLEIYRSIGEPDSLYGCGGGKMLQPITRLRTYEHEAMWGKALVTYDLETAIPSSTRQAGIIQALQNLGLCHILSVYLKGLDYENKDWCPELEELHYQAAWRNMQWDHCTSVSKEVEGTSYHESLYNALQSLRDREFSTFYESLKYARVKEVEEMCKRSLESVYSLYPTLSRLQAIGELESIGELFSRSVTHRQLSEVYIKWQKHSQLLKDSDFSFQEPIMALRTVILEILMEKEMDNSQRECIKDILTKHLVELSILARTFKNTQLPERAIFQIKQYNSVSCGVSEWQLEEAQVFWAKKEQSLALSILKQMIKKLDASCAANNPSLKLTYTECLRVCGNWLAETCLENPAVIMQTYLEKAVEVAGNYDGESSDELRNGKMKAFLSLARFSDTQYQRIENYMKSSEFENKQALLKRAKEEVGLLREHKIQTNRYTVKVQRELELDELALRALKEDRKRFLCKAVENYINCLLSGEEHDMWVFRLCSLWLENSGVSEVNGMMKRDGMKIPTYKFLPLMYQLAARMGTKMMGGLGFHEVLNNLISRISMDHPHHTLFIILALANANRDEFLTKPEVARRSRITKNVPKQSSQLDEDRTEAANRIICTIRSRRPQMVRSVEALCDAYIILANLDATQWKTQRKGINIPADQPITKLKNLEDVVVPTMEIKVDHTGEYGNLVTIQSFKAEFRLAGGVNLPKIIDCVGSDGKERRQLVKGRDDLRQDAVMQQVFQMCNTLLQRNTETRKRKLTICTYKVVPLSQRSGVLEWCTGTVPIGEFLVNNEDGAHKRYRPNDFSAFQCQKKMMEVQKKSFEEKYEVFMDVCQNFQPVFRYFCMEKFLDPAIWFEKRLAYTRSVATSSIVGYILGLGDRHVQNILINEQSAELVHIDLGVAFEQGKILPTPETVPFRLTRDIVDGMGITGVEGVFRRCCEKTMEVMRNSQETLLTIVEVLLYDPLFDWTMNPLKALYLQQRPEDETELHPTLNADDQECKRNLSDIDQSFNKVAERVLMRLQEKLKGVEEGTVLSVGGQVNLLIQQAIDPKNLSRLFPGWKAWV
As to the kind of experiment: ATM inhibition assay (immunoprecipitated ATM, GSTp53N66 substrate). The class given is biochemical. The method, then: (§1) In order to assess the inhibitory action of the compounds against ATM in vitro, the following assay was used to determine IC50 values.
(§2) ATM protein was immunoprecipitated from HeLa cell nuclear extract using rabbit polyclonal antisera raised to the C-terminal ˜500 amino-acid residues of the human ATM protein. The immunoprecipitation was performed according to the methodology described by Banin, S. et al. (1998) Enhanced phosphorylation of p53 by ATM in response to DNA damage. Science 281:1674-1677. 10 μl of immunoprecipitated ATM in Buffer C (50 mM Hepes, pH 7.4, 6 mM MgCl2, 150 mM NaCl, 0.1 mM sodium orthovanadate, 4 mM MnCl2, 0.1 mM dithiothreitol, 10% glycerol) was added to 32.5 μl of buffer C containing 1 μg of the ATM substrate GSTp53N66 in a V-bottomed 96 well polypropylene plate. The GSTp53N66 substrate is the amino terminal 66 amino acid residues of human wild type p53 fused to glutathione S-transferase. ATM phosphorylates p53 on the residue serine 15 (Banin, S. et al. (1998) Enhanced phosphorylation of p53 by ATM in response to DNA damage. Science 281:1674-1677). Varying concentrations of inhibitor were then added. […] After 10 minutes of incubation at 37° C., the reactions were initiated by the addition of 5 μl of 50 μM Na-ATP. After 1 h with shaking at 37° C., 150 μl of phosphate buffered saline (PBS) was added to the reaction and the plate centrifuged at 1500 rpm for 10 minutes. 5 μl of the reaction was then transferred to a 96 well opaque white plate containing 45 μl of PBS to allow the GSTp53N66 substrate to bind to the plate wells. The plate was covered and incubated at room temperature for 1 h with shaking before discarding the contents. The plate wells were washed twice by the addition of PBS prior to the addition of 3% (w/v) bovine serum albumin (BSA) in PBS. The plate was incubated at room temperature for 1 h with shaking before discarding the contents and washing twice with PBS. To the wells, 50 μl of a 1:10,000 dilution of primary phosphoserine-15 antibody (Cell Signaling Technology, #9284L) in 3% BSA/PBS was added to detect the phosphorylation event on the serine 15 residue of p53 elicited by the ATM kinase. After 1 h of incubation at room temperature with shaking, the wells were washed four times with PBS prior to the addition of an anti-rabbit HRP conjugated secondary antibody (Pierce, 31462) with shaking for 1 h at room temperature. The wells were then washed four times with PBS before the addition of chemiluminescence reagent (NEN Renaissance, NEL105). The plate was then shaken briefly, covered with a transparent plate seal and transferred to a TopCount NXT for chemiluminescent counting. Counts per second, following a one second counting time, were recorded for each reaction. The inhibition of ATM activity by compounds was calculated as described above for the DNA-PK assay.
(§3) The selectivity was determined by the following equation: […]

The subject of assay [2] is ATM protein. The assay is described as above. The note with it: selectivity ratio from the IC50s for ATM and DNA-PK. The class given is biochemical, human. The method, then:
as §1, §2, §3

As to `O=c1cc(N2CCOCC2)oc2c3c(ccc12)CCCC3` [Compound 297, 7,8,9,10-tetrahydro-benzo[h]-2-(morpholin-4-yl)-chromen-4-one], the IC50 in assay [1] was 45 µM. Also, the “Δ(DNA-PK/ATM)” value in assay [2] is given as 90.

In assay [1], `CC1CN(c2cc(=O)c3ccc4ccccc4c3o2)CCO1` (stereo not drawn) [Compound 317, 2-(2-Methyl-morpholin-4-yl)-benzo[h]chromen-4-one] yielded an IC50 above 100 µM. Also, the “Δ(DNA-PK/ATM)” value in assay [2] is on record as above 333.

On to `O=C1c2ccccc2C(=O)N1CCCOc1ccc2c(=O)cc(N3CCOCC3)oc2c1` [Compound 422, N-[3-(2-(Morpholin-4-yl)-4-oxo-4H-chromen-7-yloxy)-propyl]-phthalimide], for which the IC50 in assay [1] is above 100 µM. The “Δ(DNA-PK/ATM)” value in assay [2] is recorded as above 200.
